Test results as given in paper PMC9762789, “Chromone-based monoamine oxidase B inhibitor with potential iron-chelating activity for the treatment of Alzheimer’s disease” (Journal of Enzyme Inhibition and Medicinal Chemistry, 2022).
Entries after “also recorded” stand apart in the source; their conditions may differ. Read-outs that look alike come from different tables or passages of the source.

Assays:
PC-12 cells = test: Cytotoxicity test (MTT); type: cell-based; details: 24 h, up to 50 µM
Description: To examine the interaction mode of 17d on MAO-B, kinetic studies were carried out. From the Lineweaver–Burk plots (Figure 5(B)), we observed that 17d operated by a non-competitive inhibition mechanism. […] Subsequently, the potential toxic effect of 17d was investigated on pheochromocytoma (PC-12) cells.
Neural pheochromocytoma-derived PC-12 cells at the log phase of their growth cycle (8 × 10^4 cells/ml) were added to each well (100 μl/well) and incubated for 24 h at 37 °C in a humidified atmosphere of 5% CO2. Then three replicates at various concentrations of the samples (3.13, 6.25, 12.5, 25, and 50 μM) were added to each well (100 μl/well). After incubating for 24 h, 20 μl of MTT solution (5 mg/ml/well) was added to each culture medium, which was then incubated for another 4 h. Then DMSO was added to each well (150 μl/well). After 10 min at room temperature, the OD values of each well were measured on a Microplate Reader (BioTek ELx800, Winooski, VT) at the wavelength of 490 nm.

[1] = Pharmacokinetic study and brain distribution (UHPLC-MS/MS); type: in vivo; details: rats; for AUC(0-t): read-out: AUC0–24; for MRT inf: read-out: MRT0–∞
Description: UHPLC-MS/MS method was adopted to investigate the pharmacokinetic profiles of its metabolites after intravenous (i.v.) administration (2.34 mg/kg) and intragastric (i.g.) administration (15 mg/kg) of 17d in the tail vein of rats.
Rats were purchased from the Zhejiang Academy of Medical Sciences (Hangzhou, China). All rats were kept strictly following the requirements of experimental animal operation instructions, kept at a temperature (22 ± 2 °C), day/night cycle every 12 h in a constant environment. 12 h before the experiment, the rats were fasted but free to drink. For each rat, retro-orbital blood samples (0.2 ml) were obtained into EDTA soaked polythene tubes before drug administration and at time points of 0.083, 0.25, 0.50, 0.75, 1.0, 2.0, 4.0, 6.0, 8.0, 10, 12, and 24 h post-dosing. The collected blood samples were immediately centrifuged at 3500 rpm for 10 min at room temperature to separate plasma, and stored in a −80 °C refrigerator before use. […] The tissue was weighed and homogenised under ice bath conditions and was collected for further processing.
Biological samples were performed with ACQUITY UPLC® H Class system, which was coupled to an Xevo TQ-S micro triple quadrupole mass spectrometer (Waters, Milford, MA, USA) with an ESI source and MassLynx^TM Workstation software version 4.2 (Waters, Milford, MA, USA). We used a BEH Shield RP C18 column (100 × 2.1 mm, 1.7 µm, Waters, Milford, MA, USA) for chromatographic separation, and the column temperature is kept at 30 °C. The mobile phase was composed of 30%, 0.2% formic acid aqueous solution (A) and 70%, 0.3% formic acid methanol solution (B) and is delivered at a flow rate of 0.2 ml/min. The temperature of the autosampler is set to 30 °C. The sample injection volume is 5 µl. Pharmacokinetic parameters of the analytes were calculated using the pharmacokinetic software DAS version 2.0 (Bontz Inc., Beijing, China). All data were expressed as mean ± SD.

[2] = rat, plasma, iv, i.v. 2.34 mg/kg, mean ± SD, n = 3
[3] = rat, plasma, po, i.g. 15 mg/kg, mean ± SD, n = 3

SMILES: COc1ccc2c(=O)c(CNCCn3ccc(=O)c(O)c3C)coc2c1 [Compound 17d, 3-Hydroxy-1–(2-(((7-methoxy-4-oxo-4H-chromen-3-yl)methyl)amino)ethyl)-2-methylpyridin-4(1H)-one]
- cytotoxicity (PC-12 cells): no cytotoxicity; also recorded: noncytotoxic
- AUC(0-inf) [1, 2]: 0.749 ± 0.0871 µg·h/mL
- Cmax [1, 2]: 2.15 ± 0.637 µg/mL
- Tmax [1, 2]: 4.98 min
- clearance [1, 2]: 3.15 L/h/kg
- half-life [1, 2]: 19.2 min
- AUC(0-t) [1, 2]: 0.745 ± 0.0884 µg·h/mL
- MRT inf [1, 2]: 15 ± 4.8 min
- bioavailability ([1]; rat, plasma, oral, i.g. 15 mg/kg vs i.v. 2.34 mg/kg, read-out: F (bioavailability)): 9.25%
- AUC(0-inf) [1, 3]: 0.444 ± 0.0653 µg·h/mL
- Cmax [1, 3]: 0.39 ± 0.0501 µg/mL
- Tmax [1, 3]: 15 min
- half-life [1, 3]: 30.6 ± 10.8 min
- AUC(0-t) [1, 3]: 0.439 ± 0.0596 µg·h/mL
- MRT inf [1, 3]: 48.6 ± 5.4 min
- Brain 17d content ([1]; i.g. 15 mg/kg, collected at Cmax time point): 6.02 ± 0.08 ng/g
- V ([1]; i.v. 2.34 mg/kg, mean ± SD, n = 3): 1.46 ± 0.19 L/kg
- melting point: 252 to 254 °C
